Measurements from publication PMC10041525, “New Dual Inhibitors of Bacterial Topoisomerases with Broad-Spectrum Antibacterial Activity and In Vivo Efficacy against Vancomycin-Intermediate Staphylococcus aureus” (Journal of Medicinal Chemistry, 2023).
Converted amounts (≈) assume the structure as drawn. Read-outs that look alike come from different tables or passages of the source.

Assays:
Assay type in all cases: cell-based
[1] = system: 100 A. baumannii strains (50 MDR, 50 non-MDR); assay: MIC broth microdilution at IHMA Europe, panel of 100 strains; settings: for MIC / MIC50 / MIC90: Acinetobacter baumannii; for MIC50: read-out: MIC 50; for MIC90: read-out: MIC 90
A. baumannii ATCC 17978 = assay: IHMA QC MIC
Method: (§1) The panel of Hungarian clinical isolates and controls measured following the same method as detailed above, and albeit measurements were carried out in 384-well microtiter plates (Corning Inc.).

E. coli ATCC 35218 = assay: IHMA QC MIC; settings: Escherichia coli, ATCC35218; read-out: MIC (QC, repeated tests)
Method: as §1

Question: What does the source list for `CN(C)c1cc(NC(=O)CNC(C)(C)C)c(O)c2c1C[C@H]1C[C@H]3[C@H](N(C)C)C(O)=C(C(N)=O)C(=O)[C@@]3(O)C(O)=C1C2=O` [Tigecycline, tigecycline]?
Answer: MIC ([1]; A. baumannii IHMA 2155340, Kenya 2020, MDR, read-out: MIC): 4 µg/mL (≈ 6.83 µM); MIC ([1]; A. baumannii IHMA 2156634, Turkey 2020, MDR, read-out: MIC): 4 µg/mL (≈ 6.83 µM); MIC ([1]; A. baumannii IHMA 2156709, Turkey 2020, MDR, read-out: MIC): 4 µg/mL (≈ 6.83 µM); MIC ([1]; A. baumannii IHMA 2157614, Australia 2020, Non-MDR, read-out: MIC): 0.25 µg/mL (≈ 0.427 µM); MIC ([1]; A. baumannii IHMA 2177232, Lithuania 2020, MDR, read-out: MIC): 8 µg/mL (≈ 13.7 µM); MIC ([1]; A. baumannii IHMA 2177489, Lithuania 2020, MDR, read-out: MIC): 4 µg/mL (≈ 6.83 µM); MIC ([1]; A. baumannii IHMA 2178574, Ukraine 2020, Non-MDR, read-out: MIC): 0.25 µg/mL (≈ 0.427 µM); MIC ([1]; A. baumannii IHMA 2180134, Malaysia 2020, Non-MDR, read-out: MIC): 0.25 µg/mL (≈ 0.427 µM); MIC ([1]; A. baumannii IHMA 2180142, Malaysia 2020, MDR, read-out: MIC): 2 µg/mL (≈ 3.41 µM); MIC ([1]; A. baumannii IHMA 2181370, Morocco 2020, MDR, read-out: MIC): 1 µg/mL (≈ 1.71 µM); MIC ([1]; A. baumannii IHMA 2183729, Argentina 2020, MDR, read-out: MIC): 1 µg/mL (≈ 1.71 µM); MIC ([1]; A. baumannii IHMA 2183849, Argentina 2020, Non-MDR, read-out: MIC): 0.25 µg/mL (≈ 0.427 µM); MIC ([1]; A. baumannii IHMA 2184382, Japan 2020, Non-MDR, read-out: MIC): 0.12 µg/mL (≈ 0.205 µM); MIC ([1]; A. baumannii IHMA 2193375, Venezuela 2020, MDR, read-out: MIC): 1 µg/mL (≈ 1.71 µM); MIC ([1]; A. baumannii IHMA 2193485, Venezuela 2020, Non-MDR, read-out: MIC): 0.12 µg/mL (≈ 0.205 µM); MIC ([1]; A. baumannii IHMA 2193607, Venezuela 2020, MDR, read-out: MIC): 0.5 µg/mL (≈ 0.854 µM); MIC ([1]; A. baumannii IHMA 2195460, Italy 2020, MDR, read-out: MIC): 1 µg/mL (≈ 1.71 µM); MIC ([1]; A. baumannii IHMA 2196914, South Africa 2020, MDR, read-out: MIC): 4 µg/mL (≈ 6.83 µM); MIC ([1]; A. baumannii IHMA 2196959, South Africa 2020, MDR, read-out: MIC): 2 µg/mL (≈ 3.41 µM); MIC ([1]; A. baumannii IHMA 2203763, Spain 2020, MDR, read-out: MIC): 2 µg/mL (≈ 3.41 µM); MIC ([1]; A. baumannii IHMA 2205144, Korea, South 2020, MDR, read-out: MIC): 2 µg/mL (≈ 3.41 µM); MIC ([1]; A. baumannii IHMA 2206459, Taiwan 2020, MDR, read-out: MIC): 2 µg/mL (≈ 3.41 µM); MIC ([1]; A. baumannii IHMA 2206507, Taiwan 2020, Non-MDR, read-out: MIC): 0.12 µg/mL (≈ 0.205 µM); MIC ([1]; A. baumannii IHMA 2212575, Hungary 2020, Non-MDR, read-out: MIC): 0.5 µg/mL (≈ 0.854 µM); MIC ([1]; A. baumannii IHMA 2215307, Hong Kong 2020, Non-MDR, read-out: MIC): 0.25 µg/mL (≈ 0.427 µM); MIC ([1]; A. baumannii IHMA 2216586, Taiwan 2020, MDR, read-out: MIC): 2 µg/mL (≈ 3.41 µM); MIC ([1]; A. baumannii IHMA 2223200, Colombia 2020, Non-MDR, read-out: MIC): 0.25 µg/mL (≈ 0.427 µM); MIC ([1]; A. baumannii IHMA 2224017, Panama 2020, MDR, read-out: MIC): 2 µg/mL (≈ 3.41 µM); MIC ([1]; A. baumannii IHMA 2224303, Panama 2020, Non-MDR, read-out: MIC): 0.5 µg/mL (≈ 0.854 µM); MIC ([1]; A. baumannii IHMA 2231797, Greece 2020, MDR, read-out: MIC): 4 µg/mL (≈ 6.83 µM); MIC ([1]; A. baumannii IHMA 2233099, Guatemala 2020, MDR, read-out: MIC): 2 µg/mL (≈ 3.41 µM); MIC ([1]; A. baumannii IHMA 2233430, Kazakhstan 2020, MDR, read-out: MIC): 4 µg/mL (≈ 6.83 µM); MIC ([1]; A. baumannii IHMA 2233548, Kazakhstan 2020, Non-MDR, read-out: MIC): 0.12 µg/mL (≈ 0.205 µM); MIC ([1]; A. baumannii IHMA 2238964, Thailand 2020, MDR, read-out: MIC): 1 µg/mL (≈ 1.71 µM); MIC ([1]; A. baumannii IHMA 2239052, Thailand 2020, Non-MDR, read-out: MIC): 0.12 µg/mL (≈ 0.205 µM); MIC ([1]; A. baumannii IHMA 2261047, Belgium 2020, MDR, read-out: MIC): 1 µg/mL (≈ 1.71 µM); MIC ([1]; A. baumannii IHMA 2261633, Canada 2020, Non-MDR, read-out: MIC): 0.25 µg/mL (≈ 0.427 µM); MIC ([1]; A. baumannii IHMA 2274234, South Africa 2020, MDR, read-out: MIC): 2 µg/mL (≈ 3.41 µM); MIC ([1]; A. baumannii IHMA 2274364, South Africa 2020, MDR, read-out: MIC): 4 µg/mL (≈ 6.83 µM); MIC ([1]; A. baumannii IHMA 2275237, Chile 2020, Non-MDR, read-out: MIC): 0.12 µg/mL (≈ 0.205 µM); MIC ([1]; A. baumannii IHMA 2275751, Jordan 2020, MDR, read-out: MIC): 2 µg/mL (≈ 3.41 µM); MIC ([1]; A. baumannii IHMA 2316205, United States 2020, MDR, read-out: MIC): 4 µg/mL (≈ 6.83 µM); MIC ([1]; MDR n = 50, read-out: MAX (maximum MIC; all strains inhibited)): 8 µg/mL (≈ 13.7 µM); MIC50 ([1]; MDR n = 50): 2 µg/mL (≈ 3.41 µM); MIC90 ([1]; MDR n = 50): 4 µg/mL (≈ 6.83 µM); MIC ([1]; MDR n = 50, read-out: MIN (minimum MIC)): 0.5 µg/mL (≈ 0.854 µM); MIC ([1]; all isolates n = 100, read-out: MAX (maximum MIC; all strains inhibited)): 8 µg/mL (≈ 13.7 µM); MIC50 ([1]; all isolates n = 100): 0.5 µg/mL (≈ 0.854 µM); MIC90 ([1]; all isolates n = 100): 4 µg/mL (≈ 6.83 µM); MIC ([1]; all isolates n = 100, read-out: MIN (minimum MIC)): 0.06 µg/mL (≈ 0.102 µM); MIC ([1]; non-MDR n = 50, read-out: MAX (maximum MIC)): 4 µg/mL (≈ 6.83 µM); MIC50 ([1]; non-MDR n = 50): 0.25 µg/mL (≈ 0.427 µM); MIC90 ([1]; non-MDR n = 50): 0.5 µg/mL (≈ 0.854 µM); MIC ([1]; non-MDR n = 50, read-out: MIN (minimum MIC)): 0.06 µg/mL (≈ 0.102 µM); MAX (maximum MIC; all strains inhibited) ([1]; MDR n = 50): 8 µg/mL; MAX (maximum MIC; all strains inhibited) ([1]; all isolates n = 100): 8 µg/mL; MIC (QC, repeated tests) (A. baumannii ATCC 17978): 0.5 µg/mL (≈ 0.854 µM); MIC (A. baumannii ATCC 17978; Acinetobacter baumannii, ATCC17978, read-out: MIC (QC, repeated tests)): 0.25 µg/mL (≈ 0.427 µM); MIC (E. coli ATCC 35218): 0.12 µg/mL (≈ 0.205 µM)
